{"source": "paper PMC4332848", "about": "(Clinical cancer research : an official journal of the …, 2013)", "key": {"AML / acute leukemias": {"tested_on": "AML / acute leukemias", "settings": "cited from earlier work"}, "BCRP [1]": {"tested_on": "BCRP", "experiment": "BCRP transcripts in patient leukemic blasts", "format": "in vivo, human", "settings": "paired t test, 8 paired samples"}, "HL-60/W [2]": {"tested_on": "HL-60/W", "settings": "HL-60 cells, 24-hour exposure to 1 μmol/L vorinostat; cited from earlier work"}, "HL-60/W [3]": {"tested_on": "HL-60/W", "experiment": "Control studies for DR or DcR expression", "format": "cell-based, human"}, "leukemic blasts": {"tested_on": "leukemic blasts", "experiment": "Cell-cycle phase distribution, pre vs on vorinostat", "format": "in vivo, human", "settings": "Mean"}, "buccal mucosal cells": {"tested_on": "buccal mucosal cells", "experiment": "Cell-cycle phase distribution, pre vs on vorinostat", "format": "in vivo, human"}, "Leukemia blast cells": {"tested_on": "Leukemia blast cells", "experiment": "TRAIL death and decoy receptor protein expression, pre vs on vorinostat", "format": "in vivo, human"}, "[4]": {"experiment": "Serum vorinostat pharmacokinetics", "format": "in vivo, human", "settings": "for AUC(0-t): AUC0-8 h; for AUC(0-inf): AUC0-inf"}, "Pgp (ABCB1)": {"tested_on": "Pgp (ABCB1)", "settings": "individual patients' blasts on vorinostat; D < 0.15 = no overexpression"}, "[5]": {"tested_on": "patients with poor-risk or advanced acute leukemias"}, "Pgp": {"molecular_target": "Pgp (Homo sapiens, UniProt P08183)", "sequence (P08183 whole entry)": "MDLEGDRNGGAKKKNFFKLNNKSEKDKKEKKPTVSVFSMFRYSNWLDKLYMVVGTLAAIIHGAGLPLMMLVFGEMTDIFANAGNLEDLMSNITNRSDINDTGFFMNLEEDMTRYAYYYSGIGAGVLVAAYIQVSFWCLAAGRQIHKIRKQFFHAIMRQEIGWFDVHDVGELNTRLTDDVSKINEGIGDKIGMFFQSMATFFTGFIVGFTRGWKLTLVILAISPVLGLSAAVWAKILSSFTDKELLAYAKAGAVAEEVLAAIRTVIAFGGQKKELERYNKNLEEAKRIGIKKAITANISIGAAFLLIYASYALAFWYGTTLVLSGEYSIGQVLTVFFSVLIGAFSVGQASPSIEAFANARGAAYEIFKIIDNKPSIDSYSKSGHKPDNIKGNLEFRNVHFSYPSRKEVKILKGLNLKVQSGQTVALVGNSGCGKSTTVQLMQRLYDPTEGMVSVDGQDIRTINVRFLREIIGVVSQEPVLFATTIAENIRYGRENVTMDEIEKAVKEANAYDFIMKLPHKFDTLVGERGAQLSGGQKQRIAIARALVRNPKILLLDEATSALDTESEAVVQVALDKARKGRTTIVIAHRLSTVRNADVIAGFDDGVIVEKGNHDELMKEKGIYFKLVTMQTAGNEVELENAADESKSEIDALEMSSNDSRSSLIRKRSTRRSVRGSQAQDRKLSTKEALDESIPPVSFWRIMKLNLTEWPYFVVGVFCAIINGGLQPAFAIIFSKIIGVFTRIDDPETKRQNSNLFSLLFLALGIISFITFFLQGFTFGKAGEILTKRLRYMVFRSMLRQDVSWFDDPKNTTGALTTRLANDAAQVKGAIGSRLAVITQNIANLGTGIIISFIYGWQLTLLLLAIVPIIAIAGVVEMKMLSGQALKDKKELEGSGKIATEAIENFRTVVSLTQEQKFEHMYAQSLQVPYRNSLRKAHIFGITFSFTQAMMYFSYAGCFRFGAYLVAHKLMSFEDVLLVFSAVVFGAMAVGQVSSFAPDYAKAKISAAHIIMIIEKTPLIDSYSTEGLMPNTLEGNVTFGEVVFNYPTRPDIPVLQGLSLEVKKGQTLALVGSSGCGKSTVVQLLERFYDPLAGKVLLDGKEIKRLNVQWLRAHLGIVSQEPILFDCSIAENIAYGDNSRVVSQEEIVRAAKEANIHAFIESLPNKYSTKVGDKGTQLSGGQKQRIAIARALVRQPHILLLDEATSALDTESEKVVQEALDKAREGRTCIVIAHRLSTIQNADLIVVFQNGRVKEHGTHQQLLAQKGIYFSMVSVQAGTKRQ", "settings": "paired t test, 6 paired samples"}, "BCRP [6]": {"tested_on": "BCRP", "experiment": "Functional expression of BCRP in patient blasts", "format": "in vivo, human", "settings": "paired t test, 6 paired samples"}, "[7]": {"tested_on": "human leukemia cell lines", "settings": "cited from earlier work"}, "BCRP (ABCG2)": {"tested_on": "BCRP (ABCG2)", "experiment": "BCRP protein in patient leukemic blasts"}, "Buccal mucosa cells": {"tested_on": "Buccal mucosa cells", "experiment": "TRAIL death receptor protein expression, pre vs on vorinostat", "format": "in vivo, human"}, "[8]": {"settings": "human, serum, oral, 200 mg, Median, N 21"}}, "note": "Where “and” joins values, the source holds several entries; their conditions need not be identical. Equal entries are not always repeated. Where two headings read alike, the source gives them in different places."}
{"smiles": "Nc1ccccc1NC(=O)c1ccc(CNC(=O)OCc2cccnc2)cc1", "note": "[MS-275]", "values": [{"measurement": "clinical responses using classical criteria", "setting": "AML / acute leukemias; phase I study, 38 adults with advanced acute leukemias", "result": "no clinical responses"}]}
{"smiles": "CCCC(CCC)C(=O)O", "note": "[valproic acid]", "values": [{"measurement": "response rate", "setting": "AML / acute leukemias; frail or elderly patients with AML, valproic acid alone or in combination with all-trans retinoic acid", "result": 5, "unit": "%"}]}
{"smiles": "O=C(CCCCCCC(=O)Nc1ccccc1)NO", "note": "[vorinostat, suberoylanilide hydroxamic acid]", "values": [{"measurement": "BCRP mRNA expression, on vs pre vorinostat among all patients", "setting": "BCRP [1]", "result": "no significant alteration"}, {"measurement": "TRAIL death and decoy receptor expression", "setting": "HL-60/W [2]", "result": "increased DR4 and DR5 expression, but not DcR1 or DcR2 expression"}, {"measurement": "DcR1, % Positive cells", "setting": "HL-60/W [3]; 1 μmol/L vorinostat × 24 hours, untreated HL-60/W 23 ± 2", "result": "94.3 ±1.7", "unit": "%"}, {"measurement": "DR5, % Positive cells", "setting": "HL-60/W [3]; 1 μmol/L vorinostat × 24 hours, untreated HL-60/W 47.3 ± 27", "result": "84.2 ± 6.5", "unit": "%"}, {"measurement": "DR4, % Positive cells", "setting": "HL-60/W [3]; 1 μmol/L vorinostat × 24 hours, untreated HL-60/W 55.8 ±14", "result": "73.2 ±15", "unit": "%"}, {"measurement": "DcR2, % Positive cells", "setting": "HL-60/W [3]; 1 μmol/L vorinostat × 24 hours, untreated HL-60/W 56.2 ± 3", "result": "96.3 ±1.1", "unit": "%"}, {"measurement": "DR4, DR5, DcR1, and DcR2 expression", "setting": "HL-60/W [3]; 24-hour exposure to 1 μmol/L vorinostat, P < 0.02, t test", "result": "significantly increases"}, {"measurement": "% G0–G1", "setting": "leukemic blasts; N = 16, On vorinostat (days 4 to 7), Pre mean 83.97, P 0.1519", "result": 87.60, "unit": "%"}, {"measurement": "% G2–M", "setting": "leukemic blasts; N = 16, On vorinostat, Pre mean 3.83, P 0.7556", "result": 3.55, "unit": "%"}, {"measurement": "% sub-G0/G1", "setting": "leukemic blasts; N = 16, On vorinostat, Pre mean 4.29, P 0.0693", "result": 2.60, "unit": "%"}, {"measurement": "%S", "setting": "leukemic blasts; N = 16, On vorinostat, Pre mean 9.22, P 0.2841", "result": 7.17, "unit": "%"}, {"measurement": "% G0–G1", "setting": "buccal mucosal cells; Mean, N= 17, On vorinostat (days 4 to 7), Pre mean 77.99, P 0.5705", "result": 79.85, "unit": "%"}, {"measurement": "% G2–M", "setting": "buccal mucosal cells; Mean, N= 17, On vorinostat, Pre mean 2.14, P 0.2586", "result": 3.26, "unit": "%"}, {"measurement": "%S", "setting": "buccal mucosal cells; Mean, N= 17, On vorinostat, Pre mean 11.49, P 0.9168", "result": 11.30, "unit": "%"}, {"measurement": "% sub-G0–G1", "setting": "buccal mucosal cells; Mean, N= 17, On vorinostat, Pre mean 11.74, P 0.1942", "result": 7.79, "unit": "%"}, {"measurement": "alteration in any cell-cycle phase upon treatment", "setting": "buccal mucosal cells; pre vs on vorinostat, 17 patients", "result": "no statistically significant alteration"}, {"measurement": "Percentage of cells expressing DcR2", "setting": "Leukemia blast cells; Mean, N 11, On vorinostat, Pre mean 15.83, P 0.5279", "result": "17.56 (11)"}, {"measurement": "Percentage of cells expressing DcR1", "setting": "Leukemia blast cells; Mean, N 11, On vorinostat, Pre mean 17.59, P 0.1364", "result": "25.97 (11)"}, {"measurement": "Percentage of cells expressing DR4", "setting": "Leukemia blast cells; Mean, N 14, On vorinostat, Pre mean 12.21, P 0.5498", "result": "13.82 (14)"}, {"measurement": "Percentage of cells expressing DR5", "setting": "Leukemia blast cells; Mean, N 14, On vorinostat, Pre mean 14.75, P 0.3617", "result": "17.68 (14)"}, {"measurement": "DR4, DR5, DcR1, DcR2 expression, pre vs on vorinostat", "setting": "Leukemia blast cells; two-sample paired t test or Wilcoxon signed-rank test", "result": "no significant differences"}, {"measurement": "Cmax", "setting": "[4]; DL2, average", "result": "165.2 ± 64.1", "unit": "ng/mL"}, {"measurement": "Cl/F", "setting": "[4]; Geometric mean, N 20", "result": 277, "unit": "L"}, {"measurement": "Vd/F", "setting": "[4]; Geometric mean, N 20", "result": 829, "unit": "L/h"}, {"measurement": "Cl/F", "setting": "[4]; Mean, N 20, serum, first 200 mg oral dose day 1", "result": 300, "unit": "L"}, {"measurement": "Cmax", "setting": "[4]; Mean, N 21, serum, first 200 mg oral dose day 1", "result": 185, "unit": "ng/mL"}, {"measurement": "Cl/F", "setting": "[4]; Median, N 20", "result": 265, "unit": "L"}, {"measurement": "Vd/F", "setting": "[4]; Median, N 20", "result": 689, "unit": "L/h"}, {"measurement": "t1/2", "setting": "[4]; Median, N 20", "result": 1.7, "unit": "h"}, {"measurement": "AUC(0-t)", "setting": "[4]; human, serum, oral, 200 mg, Geometric mean, N 21", "result": 591, "unit": "ng·h/mL"}, {"measurement": "AUC(0-t)", "setting": "[4]; [8]", "result": 623, "unit": "ng·h/mL"}, {"measurement": "AUC(0-inf)", "setting": "[4]; human, serum, oral, 200 mg, Geometric mean, N 20", "result": 722, "unit": "ng·h/mL"}, {"measurement": "AUC(0-inf)", "setting": "[4]; human, serum, oral, 200 mg, Median, N 20", "result": 757, "unit": "ng·h/mL"}, {"measurement": "Cmax", "setting": "[4]; human, serum, oral, 200 mg, Cmax, 65 years or older age group, average", "result": "203 ± 101", "unit": "ng/mL"}, {"measurement": "Cmax", "setting": "[4]; human, serum, oral, 200 mg, Cmax, DL1, average", "result": "197 ± 90.4", "unit": "ng/mL"}, {"measurement": "Cmax", "setting": "[4]; human, serum, oral, 200 mg, Cmax, less than 65 years of age cohort, average", "result": "174 ± 174", "unit": "ng/mL"}, {"measurement": "Tmax", "setting": "[4]; human, serum, oral, 200 mg, 65 years or older age group, average", "result": "1.6 ± 1.1", "unit": "h"}, {"measurement": "Tmax", "setting": "[4]; human, serum, oral, 200 mg, DL2, average", "result": "3.5 ± 2", "unit": "h"}, {"measurement": "Tmax", "setting": "[4]; [8]", "result": 2, "unit": "h"}, {"measurement": "Tmax", "setting": "[4]; human, serum, oral, 200 mg, less than 65 years of age cohort, average", "result": "3.3 ± 3.3", "unit": "h"}, {"measurement": "half-life", "setting": "[4]; human, serum, po, 200 mg", "result": 2.5, "unit": "h"}, {"measurement": "Tmax", "setting": "[4]; human, serum, po, 200 mg, Mean, N 21, serum, first 200 mg oral dose day 1", "result": 2.6, "unit": "h"}, {"measurement": "patients with MDR1 expression increased in the on treatment samples", "setting": "MDR1; 7 of 8 paired samples, 95% CI, 50%–99%", "result": 88, "unit": "%"}, {"measurement": "MDR1 mRNA expression, on vs pre vorinostat among all patients", "setting": "MDR1; paired t test, 8 paired samples", "result": "no significant alteration"}, {"measurement": "Pgp Protein, ON (Kolmogorov–Smirnov D value)", "setting": "Pgp (ABCB1)", "result": "0.05 and 0.07 and 0.08"}, {"measurement": "DLTs", "setting": "[5]; DL1, 200 mg vorinostat p.o. twice a day", "result": "No DLTs"}, {"measurement": "DLTs", "setting": "[5]; DL2, 200 mg vorinostat 3 times a day, among 5 dose-escalation-evaluable patients", "result": 2}, {"measurement": "Pgp function, on vs pre vorinostat", "setting": "Pgp", "result": "no difference in function"}, {"measurement": "BCRP function, on vs pre vorinostat", "setting": "BCRP [6]", "result": "no difference in function"}, {"measurement": "interaction between vorinostat and etoposide", "setting": "[7]", "result": "synergy"}, {"measurement": "interaction with anthracyclines and etoposide, in vitro cytotoxicity studies", "setting": "[7]", "result": "additively or synergistically"}, {"measurement": "interaction, concomitant administration of cytarabine and vorinostat", "setting": "[7]", "result": "antagonism"}, {"measurement": "interaction, sequential administration of vorinostat followed by cytarabine", "setting": "[7]", "result": "synergism"}, {"measurement": "concentrations giving significant reduction in the percentage of S-phase cells", "setting": "[7]; within 24 hours after in vitro exposure", "result": "≥ 1", "unit": "µmol/L"}, {"measurement": "BCRP Protein, ON (Kolmogorov–Smirnov D value)", "setting": "BCRP (ABCG2); individual patients' blasts on vorinostat, D < 0.15 = no overexpression", "result": "0.05 and 0.15 and 0.19"}, {"measurement": "BCRP protein expression following treatment", "setting": "BCRP (ABCG2); patients 17 and 24", "result": "slight decreases"}, {"measurement": "Percentage of cells expressing DR5", "setting": "Buccal mucosa cells; Mean, N 4, On vorinostat, Pre mean 26.46, P 0.9316", "result": "25.98 (4)"}, {"measurement": "Percentage of cells expressing DR4", "setting": "Buccal mucosa cells; Mean, N 4, On vorinostat, Pre mean 27.90, P 0.5873", "result": "41.39 (4)"}, {"measurement": "DR4 or DR5 expression, pre vs on vorinostat", "setting": "Buccal mucosa cells; limited samples", "result": "no statistically significant differences"}]}
